Results from paper PMC9764067 (Acta Pharmaceutica Sinica. B, 2022).

What was measured:
EBOVpp = assay type: cell-based, Ebola virus
EBOV-GP/HIV-luc = assay type: cell-based, Ebola virus
[1] = system: cellular content of cholesterol; assay type: cell-based

O=C1Nc2ccc(Cl)cc2[C@@](C#CC2CC2)(C(F)(F)F)O1 [efavirenz]
inhibitory effect by time of drug addition (EBOVpp): maintained its inhibitory effect up to 8 hpi

heparin
effect on uptake of viral genomic RNA (virus binding to the cell) (EBOV-GP/HIV-luc): marked inhibition

CCN(CC)CCO[C@H]1CC[C@@]2(C)C(=CC[C@@H]3[C@@H]2CC[C@]2(C)C(=O)CC[C@@H]32)C1 [U18666A]
cellular content of cholesterol [1]: cholesterol accumulation
